From PubChem BioAssay (NCI)
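96-well plates; 48 h exposure; 5 concentrations. Endpoints by linear interpolation between flanking doses. Not reached: highest tested concentration assigned. The concentration for 50% growth inhibition is given as GI50. The concentration for full growth arrest is given as TGI.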

Experiments:
Experiment in all cases: growth of human tumour cells (NCI), 48 h
SK-MEL-28 melanoma = tested on: SK-MEL-28 melanoma
NCI/ADR-RES ovarian = tested on: NCI/ADR-RES ovarian
HCC-2998 colon = tested on: HCC-2998 colon
OVCAR-5 ovarian = tested on: OVCAR-5 ovarian
A549 NSCLC = tested on: A549 NSCLC
NCI-H460 lung = tested on: NCI-H460 lung
SK-OV-3 ovarian = tested on: SK-OV-3 ovarian
SK-MEL-2 melanoma = tested on: SK-MEL-2 melanoma
KM12 colon = tested on: KM12 colon
SF-268 CNS = tested on: SF-268 CNS

O=C(Nc1ccccc1C(=O)N/N=C(\c1ccccc1)c1ccccn1)c1ccc(F)cc1
GI50 (SK-MEL-28 melanoma): 0.536 µM
TGI (SK-MEL-28 melanoma): > 100 µM
GI50 (NCI/ADR-RES ovarian): 0.105 µM
TGI (NCI/ADR-RES ovarian): > 19.7 µM
GI50 (HCC-2998 colon): 0.321 µM
TGI (HCC-2998 colon): > 100 µM
GI50 (OVCAR-5 ovarian): 0.671 µM
TGI (OVCAR-5 ovarian): > 100 µM
GI50 (A549 NSCLC): 0.451 µM
TGI (A549 NSCLC): > 100 µM
GI50 (NCI-H460 lung): 0.105 µM
TGI (NCI-H460 lung): 4.19 µM
GI50 (SK-OV-3 ovarian): 0.354 µM
TGI (SK-OV-3 ovarian): > 20.9 µM
GI50 (SK-MEL-2 melanoma): 7.01 µM
TGI (SK-MEL-2 melanoma): > 100 µM
GI50 (KM12 colon): 0.421 µM
TGI (KM12 colon): > 100 µM
GI50 (SF-268 CNS): 0.364 µM
TGI (SF-268 CNS): > 100 µM

Cc1cc([N+](=O)[O-])c(C)c(Br)c1C
TGI (SK-MEL-28 melanoma): > 100 µM
TGI (NCI/ADR-RES ovarian): > 100 µM
TGI (OVCAR-5 ovarian): > 100 µM
TGI (A549 NSCLC): > 100 µM
TGI (NCI-H460 lung): > 100 µM
TGI (SK-OV-3 ovarian): > 100 µM
TGI (SK-MEL-2 melanoma): > 100 µM
TGI (KM12 colon): > 100 µM
TGI (SF-268 CNS): > 100 µM

Cc1ccc(C(C)C)cc1NC(=O)Nc1ccc([N+](=O)[O-])cc1
GI50 (SK-MEL-28 melanoma): 2.78 µM
TGI (SK-MEL-28 melanoma): 10.4 µM
GI50 (NCI/ADR-RES ovarian): 2.61 µM
TGI (NCI/ADR-RES ovarian): 7.7 µM
GI50 (HCC-2998 colon): 2.09 µM
TGI (HCC-2998 colon): 5.44 µM
GI50 (OVCAR-5 ovarian): 2.92 µM
TGI (OVCAR-5 ovarian): 8.99 µM
GI50 (A549 NSCLC): 2.63 µM
TGI (A549 NSCLC): 11.1 µM
GI50 (NCI-H460 lung): 2.21 µM
TGI (NCI-H460 lung): 5.34 µM
GI50 (SK-OV-3 ovarian): 2.17 µM
TGI (SK-OV-3 ovarian): 5.97 µM
GI50 (KM12 colon): 2.25 µM
TGI (KM12 colon): 5.91 µM
GI50 (SF-268 CNS): 2.67 µM
TGI (SF-268 CNS): 12.1 µM

CC1CCC2N(C1)CC1C3(O)CC45OC6(O)C(O)CCC4(C)C6CCC5C3(O)CC(O)C1(O)C2(C)O (centres undefined)
TGI (SK-MEL-28 melanoma): > 100 µM
TGI (NCI/ADR-RES ovarian): > 100 µM
TGI (HCC-2998 colon): > 100 µM
TGI (OVCAR-5 ovarian): > 100 µM
TGI (A549 NSCLC): > 100 µM
TGI (NCI-H460 lung): > 100 µM
TGI (SK-OV-3 ovarian): > 100 µM
TGI (SK-MEL-2 melanoma): > 100 µM
TGI (KM12 colon): > 100 µM
TGI (SF-268 CNS): > 100 µM

CC1=C(C(=O)Nc2ccc(Cl)c(Cl)c2)C(c2ccccc2O)NC(=O)N1 (centres undefined)
GI50 (SK-MEL-28 melanoma): > 50 µM
TGI (SK-MEL-28 melanoma): > 50 µM
GI50 (NCI/ADR-RES ovarian): > 50 µM
TGI (NCI/ADR-RES ovarian): > 50 µM
GI50 (OVCAR-5 ovarian): > 50 µM
TGI (OVCAR-5 ovarian): > 50 µM
GI50 (A549 NSCLC): > 50 µM
TGI (A549 NSCLC): > 50 µM
GI50 (NCI-H460 lung): > 50 µM
TGI (NCI-H460 lung): > 50 µM
GI50 (SK-OV-3 ovarian): > 50 µM
TGI (SK-OV-3 ovarian): > 50 µM
GI50 (SK-MEL-2 melanoma): > 50 µM
TGI (SK-MEL-2 melanoma): > 50 µM
GI50 (KM12 colon): 16.9 µM
TGI (KM12 colon): > 50 µM
GI50 (SF-268 CNS): 46.9 µM
TGI (SF-268 CNS): > 50 µM

Cc1cc(C(O)CN(C)C)cc2c1ccc1cc(C(C)C)ccc12 (centres undefined)
GI50 (SK-MEL-28 melanoma): 1.88 µM
TGI (SK-MEL-28 melanoma): 3.36 µM
GI50 (NCI/ADR-RES ovarian): 2.07 µM
TGI (NCI/ADR-RES ovarian): 5.47 µM
GI50 (HCC-2998 colon): 1.57 µM
TGI (HCC-2998 colon): 3.16 µM
GI50 (OVCAR-5 ovarian): 2.02 µM
TGI (OVCAR-5 ovarian): 4.36 µM
GI50 (A549 NSCLC): 1.93 µM
TGI (A549 NSCLC): 3.54 µM
GI50 (NCI-H460 lung): 1.74 µM
TGI (NCI-H460 lung): 3.43 µM
GI50 (SK-OV-3 ovarian): 4.58 µM
TGI (SK-OV-3 ovarian): 20 µM
GI50 (SK-MEL-2 melanoma): 2 µM
TGI (SK-MEL-2 melanoma): 3.92 µM
GI50 (KM12 colon): 1.82 µM
TGI (KM12 colon): 3.32 µM
GI50 (SF-268 CNS): 2.8 µM
TGI (SF-268 CNS): 7.73 µM

N#CC1C=Cc2ccccc2N1C(=O)Oc1ccccc1 (centres undefined)
TGI (SK-MEL-28 melanoma): > 100 µM
TGI (NCI/ADR-RES ovarian): > 100 µM
TGI (HCC-2998 colon): > 100 µM
TGI (OVCAR-5 ovarian): > 100 µM
TGI (A549 NSCLC): > 100 µM
TGI (NCI-H460 lung): > 100 µM
TGI (SK-MEL-2 melanoma): 64.3 µM
TGI (KM12 colon): > 100 µM
TGI (SF-268 CNS): > 100 µM

CC1COCC(C)N1C1=C(Cl)C(=O)c2ccccc2C1=O (centres undefined)
GI50 (SK-MEL-28 melanoma): 14.2 µM
TGI (SK-MEL-28 melanoma): 27.9 µM
GI50 (NCI/ADR-RES ovarian): 3.36 µM
TGI (NCI/ADR-RES ovarian): 14.1 µM
GI50 (HCC-2998 colon): 17.2 µM
TGI (HCC-2998 colon): 31.1 µM
GI50 (OVCAR-5 ovarian): 17 µM
TGI (OVCAR-5 ovarian): 32 µM
GI50 (A549 NSCLC): 17 µM
TGI (A549 NSCLC): 32.2 µM
GI50 (NCI-H460 lung): 15.8 µM
TGI (NCI-H460 lung): 33.6 µM
GI50 (SK-OV-3 ovarian): 17.9 µM
TGI (SK-OV-3 ovarian): 31.8 µM
GI50 (KM12 colon): 12.4 µM
TGI (KM12 colon): 25.4 µM
GI50 (SF-268 CNS): 7.85 µM
TGI (SF-268 CNS): 21.1 µM

CC1CC2(C)CC(=O)C1C1C(=O)N(CCN3CCCCC3)C(=O)C12 (centres undefined)
GI50 (NCI/ADR-RES ovarian): > 100 µM
TGI (NCI/ADR-RES ovarian): > 100 µM
GI50 (HCC-2998 colon): > 100 µM
TGI (HCC-2998 colon): > 100 µM
GI50 (OVCAR-5 ovarian): > 100 µM
TGI (OVCAR-5 ovarian): > 100 µM
GI50 (A549 NSCLC): > 100 µM
TGI (A549 NSCLC): > 100 µM
GI50 (SK-OV-3 ovarian): > 100 µM
TGI (SK-OV-3 ovarian): > 100 µM
GI50 (SK-MEL-2 melanoma): > 100 µM
TGI (SK-MEL-2 melanoma): > 100 µM
GI50 (KM12 colon): > 100 µM
TGI (KM12 colon): > 100 µM
GI50 (SF-268 CNS): > 100 µM
TGI (SF-268 CNS): > 100 µM

COc1cccc(NC(=O)C(=O)C(C(C)=O)c2nc3ccc(Cl)cc3[nH]c2=O)c1 (centres undefined)
TGI (SK-MEL-28 melanoma): > 100 µM
TGI (HCC-2998 colon): > 100 µM
TGI (OVCAR-5 ovarian): > 100 µM
TGI (A549 NSCLC): > 100 µM
TGI (NCI-H460 lung): > 100 µM
TGI (SK-OV-3 ovarian): > 100 µM
TGI (SK-MEL-2 melanoma): > 100 µM
TGI (KM12 colon): > 100 µM
TGI (SF-268 CNS): > 100 µM

CC(C)C(=O)Oc1cc2c(=O)oc3c(OC(=O)C(C)C)c(OC(=O)C(C)C)cc4c(=O)oc(c1OC(=O)C(C)C)c2c34
TGI (SK-MEL-28 melanoma): > 100 µM
TGI (NCI/ADR-RES ovarian): > 100 µM
TGI (HCC-2998 colon): > 100 µM
TGI (OVCAR-5 ovarian): > 100 µM
TGI (A549 NSCLC): > 100 µM
TGI (NCI-H460 lung): > 100 µM
TGI (SK-OV-3 ovarian): > 100 µM
TGI (KM12 colon): > 100 µM
TGI (SF-268 CNS): > 100 µM

S=c1nc(-c2ccnc(-c3nc(=S)[nH][nH]3)c2)[nH][nH]1
TGI (SK-MEL-28 melanoma): > 100 µM
TGI (HCC-2998 colon): > 100 µM
TGI (OVCAR-5 ovarian): > 100 µM
TGI (A549 NSCLC): > 100 µM
TGI (NCI-H460 lung): > 100 µM
TGI (SK-OV-3 ovarian): > 100 µM
TGI (SK-MEL-2 melanoma): > 100 µM
TGI (KM12 colon): > 100 µM
TGI (SF-268 CNS): > 100 µM

CC1OC(OC2CCC3(C=O)C4CCC5(C)C(C6=CC(=O)OC6)CCC5(O)C4CCC3(O)C2)C(O)C(O)C1O (centres undefined)
TGI (SK-MEL-28 melanoma): 0.000135 µM
TGI (NCI/ADR-RES ovarian): 6.17e-05 µM
GI50 (OVCAR-5 ovarian): 0.0112 µM
TGI (NCI-H460 lung): 3.81e-05 µM
TGI (SK-OV-3 ovarian): 0.000102 µM
TGI (SK-MEL-2 melanoma): 0.000326 µM
TGI (KM12 colon): 0.000298 µM
TGI (SF-268 CNS): 4.11e-05 µM

O=C(c1ccc(Cl)cc1)C1OC12C(=O)Nc1ccccc12 (centres undefined)
TGI (SK-MEL-28 melanoma): 29.5 µM
TGI (HCC-2998 colon): 34.1 µM
TGI (OVCAR-5 ovarian): 36.2 µM
TGI (A549 NSCLC): 58.6 µM
TGI (NCI-H460 lung): 47.1 µM
TGI (SK-OV-3 ovarian): 60.4 µM
TGI (SK-MEL-2 melanoma): 22.3 µM
TGI (KM12 colon): 32.5 µM
TGI (SF-268 CNS): 40.2 µM

Cc1nc(-n2nc(-c3ccccc3)cc2-c2ccccc2)sc1C(/C=C/c1ccc([N+](=O)[O-])cc1)=N/NC(=O)c1ccncc1
TGI (SK-MEL-28 melanoma): 99.2 µM
TGI (HCC-2998 colon): 26.6 µM
TGI (OVCAR-5 ovarian): > 100 µM
TGI (A549 NSCLC): > 100 µM
TGI (NCI-H460 lung): > 100 µM
TGI (SK-OV-3 ovarian): > 100 µM
TGI (SK-MEL-2 melanoma): 66.1 µM
TGI (KM12 colon): 22.4 µM
TGI (SF-268 CNS): > 100 µM

CCOP(=O)(Nc1ccc2oc(=O)c3ccccc3c2c1)OCC
TGI (SK-MEL-28 melanoma): > 100 µM
TGI (NCI/ADR-RES ovarian): > 100 µM
TGI (HCC-2998 colon): > 100 µM
TGI (OVCAR-5 ovarian): > 100 µM
TGI (A549 NSCLC): > 100 µM
TGI (NCI-H460 lung): > 100 µM
TGI (SK-MEL-2 melanoma): > 100 µM
TGI (SF-268 CNS): > 100 µM

CO[C@@]12[C@@H]3NC3CN1C1=C(C(=O)C(N)=C(C)C1=O)[C@@H]2COC(N)=O (some centres undefined)
GI50 (SK-MEL-28 melanoma): 1.39 µM
TGI (SK-MEL-28 melanoma): 5.47 µM
GI50 (NCI/ADR-RES ovarian): 3.45 µM
TGI (NCI/ADR-RES ovarian): > 90.5 µM
GI50 (HCC-2998 colon): 0.46 µM
TGI (HCC-2998 colon): 2.02 µM
GI50 (OVCAR-5 ovarian): 1.02 µM
TGI (OVCAR-5 ovarian): 6.99 µM
TGI (A549 NSCLC): 3.62 µM
TGI (NCI-H460 lung): 1.44 µM
TGI (SK-OV-3 ovarian): 5.33 µM
GI50 (SK-MEL-2 melanoma): 1.91 µM
TGI (SK-MEL-2 melanoma): 4.41 µM
GI50 (KM12 colon): 1.22 µM
TGI (KM12 colon): 7.22 µM
